Experimental data: patent US9150566B2, “2-(1,2,3-triazol-2-yl)benzamide and 3-(1,2,3-triazol-2-YL)picolinamide derivatives as orexin receptor antagonists” (ACTELION PHARMACEUTICALS LTD., priority 2011, dated 2015)
Like-named read-outs stand apart in the source and are kept apart here.

Tests used:
[1] = Measurement of brain and systemic concentration after oral administration; format: in vivo; conditions: rat, brain, male wistar rats, oral 100 mg/kg, read-out: brain concentration [B]; for concentration at 3 h: formulated in 100% PEG400, sampled at 3 h; for concentration at 1 h: formulated in 10% PEG400/90% MC0.5%, sampled at 1 h
Method: Measurement of Brain and Systemic Concentration after Oral Administration:
In order to assess brain penetration, the concentration of the compound is measured in plasma ([P]), and brain ([B]), sampled 1 h or 3 h (or at different time points) following oral administration (100 mg/kg) to male wistar rats (n=3). The compounds are formulated either in 100% PEG 400 or 10% PEG400/90% MC0.5%. Samples are collected in the same animal at the same time point (+/−5 min). Blood is sampled from the vena cava caudalis into containers with EDTA as anticoagulant and centrifuged to yield plasma. Brain is sampled after cardiac perfusion of 10 mL NaCl 0.9% and homogenized into one volume of cold phosphate buffer (pH 7.4). All samples are extracted with MeOH and analyzed by LC-MS/MS. Concentrations are determined with the help of calibration curves. Inter-individual variations between the three rats were limited. Particular compounds of the present invention tested as described above gave brain concentrations ([B]) as shown in Table 16 below; wherein the compounds of Examples 11-37 and 94 were formulated in 100% PEG400 and sampled at 3 h. All other examples below were formulated in 10% PEG400/90% MC0.5% and sampled at 1 h.

[2] = target: human orexin-1 receptor (Homo sapiens (Human), UniProt O43613); assay: In vitro intracellular calcium measurements (FLIPR), antagonistic activity on orexin-1 receptor; format: cell-based; conditions: read-out: IC50 OX1
Sequence of human orexin-1 receptor (O43613 whole entry): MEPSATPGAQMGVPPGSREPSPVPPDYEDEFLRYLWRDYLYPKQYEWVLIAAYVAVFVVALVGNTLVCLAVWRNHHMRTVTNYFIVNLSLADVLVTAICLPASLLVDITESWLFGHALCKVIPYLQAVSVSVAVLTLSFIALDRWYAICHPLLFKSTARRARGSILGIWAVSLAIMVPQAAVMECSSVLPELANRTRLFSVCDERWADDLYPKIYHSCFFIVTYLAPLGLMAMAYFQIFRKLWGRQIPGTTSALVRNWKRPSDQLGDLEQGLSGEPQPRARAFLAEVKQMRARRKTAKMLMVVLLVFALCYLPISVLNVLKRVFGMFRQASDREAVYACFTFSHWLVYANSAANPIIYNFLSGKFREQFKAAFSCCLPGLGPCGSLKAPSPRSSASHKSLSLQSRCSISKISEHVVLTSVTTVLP
Summary of the method: (§1)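 CHO cells expressing human orexin-1 or orexin-2 receptor were seeded overnight, preincubated with antagonist for 120 min, then stimulated with agonist in a FLIPR Tetra.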

[3] = target: human orexin-2 receptor (Homo sapiens (Human), UniProt O43614); assay: In vitro intracellular calcium measurements (FLIPR), antagonistic activity on orexin-2 receptor; format: cell-based; conditions: read-out: IC50 OX2
Sequence of human orexin-2 receptor (O43614 whole entry): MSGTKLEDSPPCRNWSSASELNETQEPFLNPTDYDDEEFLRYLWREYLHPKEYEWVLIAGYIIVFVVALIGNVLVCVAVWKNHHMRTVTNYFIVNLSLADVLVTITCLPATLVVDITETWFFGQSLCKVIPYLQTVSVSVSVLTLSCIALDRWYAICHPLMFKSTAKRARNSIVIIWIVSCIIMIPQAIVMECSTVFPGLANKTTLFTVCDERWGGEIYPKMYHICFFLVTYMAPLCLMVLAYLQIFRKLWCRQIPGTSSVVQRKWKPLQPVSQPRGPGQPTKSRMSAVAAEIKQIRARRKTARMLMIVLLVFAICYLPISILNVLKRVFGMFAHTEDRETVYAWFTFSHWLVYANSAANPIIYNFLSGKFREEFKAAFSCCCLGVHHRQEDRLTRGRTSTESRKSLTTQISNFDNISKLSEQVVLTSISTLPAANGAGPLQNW
Summary of the method: as §1

[4] = target: CYP3A4 (Homo sapiens (Human), UniProt P08684); assay: CYP3A4 inhibition assay (human liver microsomes, testosterone 6β-hydroxylation); conditions: read-out: CYP3A4 IC50, 40 μM testosterone
Sequence of CYP3A4 (P08684 whole entry): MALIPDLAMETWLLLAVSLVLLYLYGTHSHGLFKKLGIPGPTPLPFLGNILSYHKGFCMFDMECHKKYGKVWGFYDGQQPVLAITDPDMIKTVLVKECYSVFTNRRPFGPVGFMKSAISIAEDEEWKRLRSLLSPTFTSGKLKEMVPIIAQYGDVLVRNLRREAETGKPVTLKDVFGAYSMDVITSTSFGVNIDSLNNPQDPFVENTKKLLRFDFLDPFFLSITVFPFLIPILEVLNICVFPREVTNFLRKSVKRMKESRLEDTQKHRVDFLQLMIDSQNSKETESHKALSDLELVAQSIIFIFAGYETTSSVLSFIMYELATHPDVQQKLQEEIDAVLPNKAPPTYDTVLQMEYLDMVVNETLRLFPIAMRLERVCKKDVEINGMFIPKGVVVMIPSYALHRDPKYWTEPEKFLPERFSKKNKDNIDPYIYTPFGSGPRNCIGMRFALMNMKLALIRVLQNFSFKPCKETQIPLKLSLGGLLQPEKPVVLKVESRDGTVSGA

[5] = CHO cells expressing human orexin-1 receptor, FLIPR, 3 nM orexin-A agonist, 120 min antagonist incubation, geometric mean if determined several times
[6] = CHO cells expressing human orexin-2 receptor, FLIPR, 3 nM orexin-A agonist, 120 min antagonist incubation, geometric mean if determined several times

Structure (SMILES)	concentration at 3 h [1] [ng/g]	IC50 [2] [nM]	IC50 [3] [nM]	IC50 [4] [µM]	IC50 [2, 5] [nM]	IC50 [3, 6] [nM]	concentration at 1 h [1] [ng/g]
Cc1ccc(-n2nccn2)c(C(=O)N2CCOC[C@H]2Cc2cccc(-n3nccn3)c2)c1 [Example 11, (5-Methyl-2-[1,2,3]triazol-2-yl-phenyl)-[(R)-3-(3-[1,2,3]triazol-2-yl-benzyl)-morpholin-4-yl]-methanone]	46	2	196	–	–	–	–
O=C(c1ccccc1-n1nccn1)N1CCOC[C@H]1Cc1cccc(-n2nccn2)c1 [Example 12, [(R)-3-(3-[1,2,3]Triazol-2-yl-benzyl)-morpholin-4-yl]-(2-[1,2,3]triazol-2-yl-phenyl)-methanone]	11900	–	–	30	17	1240	–
O=C(c1ccccc1-n1nccn1)N1CCOC[C@H]1Cc1cccc(-n2cccn2)c1 [Example 16, [(R)-3-(3-Pyrazol-1-yl-benzyl)-morpholin-4-yl]-(2-[1,2,3]triazol-2-yl-phenyl)-methanone]	160	–	–	43	30	1820	–
Cc1ccc(-n2nccn2)c(C(=O)N2CCOC[C@H]2Cc2cccc(-n3cccn3)c2)c1F [Example 21, (2-Fluoro-3-methyl-6-[1,2,3]triazol-2-yl-phenyl)-[(R)-3-(3-pyrazol-1-yl-benzyl)-morpholin-4-yl]-methanone]	36	–	–	20	2	1650	–
Cc1ccc(C(=O)N2CCOC[C@H]2Cc2cccc(-n3nccn3)c2)c(-n2nccn2)c1 [Example 27, (4-Methyl-2-[1,2,3]triazol-2-yl-phenyl)-[(R)-3-(3-[1,2,3]triazol-2-yl-benzyl)-morpholin-4-yl]-methanone]	5500	2	274	31	–	–	–
Cc1ccc(-n2nccn2)c(C(=O)N2CCOC[C@H]2Cc2cccc(-n3nccn3)c2)c1F [Example 29, (2-Fluoro-3-methyl-6-[1,2,3]triazol-2-yl-phenyl)-[(R)-3-(3-[1,2,3]triazol-2-yl-benzyl)-morpholin-4-yl]-methanone]	423	–	–	39	4	333	–
Cc1ccc(C(=O)N2CCOC[C@H]2Cc2cc(-n3nccn3)ccc2F)c(-n2nccn2)c1 [Example 62, [(R)-3-(2-Fluoro-5-[1,2,3]triazol-2-yl-benzyl)-morpholin-4-yl]-(4-methyl-2-[1,2,3]triazol-2-yl-phenyl)-methanone]	–	–	–	29	–	404	4420
O=C(c1ccc(C(F)(F)F)cc1-n1nccn1)N1CCOC[C@H]1Cc1cccc(-c2ncon2)c1 [Example 87, [(R)-3-(3-[1,2,4]Oxadiazol-3-yl-benzyl)-morpholin-4-yl]-(2-[1,2,3]triazol-2-yl-4-trifluoromethyl-phenyl)-methanone]	–	–	–	15	–	227	1880
Cc1ccc(C(=O)N2CCOC[C@H]2Cc2cc(-c3ncccn3)ccc2F)c(-n2nccn2)c1 [Example 156, [(R)-3-(2-Fluoro-5-pyrimidin-2-yl-benzyl)-morpholin-4-yl]-(4-methyl-2-[1,2,3]triazol-2-yl-phenyl)-methanone]	–	–	–	> 50	–	571	613
O=C(c1cccc(Cl)c1-n1nccn1)N1CCOC[C@H]1Cc1cc(-c2ncon2)ccc1F [Example 180, (3-Chloro-2-[1,2,3]triazol-2-yl-phenyl)-[(R)-3-(2-fluoro-5-[1,2,4]oxadiazol-3-yl-benzyl)-morpholin-4-yl]-methanone]	–	–	–	36	19	830	–
Cc1ccc(C(=O)N2CCOC[C@H]2Cc2cc(-c3ncon3)ccc2F)c(-n2nccn2)c1C [Example 181, (3,4-Dimethyl-2-[1,2,3]triazol-2-yl-phenyl)-[(R)-3-(2-fluoro-5-[1,2,4]oxadiazol-3-yl-benzyl)-morpholin-4-yl]-methanone]	–	–	–	36	11	1570	–
Cc1ccc(C(=O)N2CCOC[C@H]2Cc2cccc(-n3nccn3)c2F)c(-n2nccn2)c1 [Example 183, [(R)-3-(2-Fluoro-3-[1,2,3]triazol-2-yl-benzyl)-morpholin-4-yl]-(4-methyl-2-[1,2,3]triazol-2-yl-phenyl)-methanone]	–	15	2130	> 50	–	–	–
C[C@@H]1CN(C(=O)c2cc(Cl)ccc2-n2nccn2)[C@H](Cc2cccc(-n3nccn3)c2)CO1 [Example 184, (5-Chloro-2-[1,2,3]triazol-2-yl-phenyl)-[(2R,5R)-2-methyl-5-(3-[1,2,3]triazol-2-yl-benzyl)-morpholin-4-yl]-methanone]	–	–	–	19	2	96	–
C[C@@H]1CN(C(=O)c2ccc(Cl)cc2-n2nccn2)[C@H](Cc2cccc(-n3nccn3)c2)CO1 [Example 185, (4-Chloro-2-[1,2,3]triazol-2-yl-phenyl)-[(2R,5R)-2-methyl-5-(3-[1,2,3]triazol-2-yl-benzyl)-morpholin-4-yl]-methanone]	–	–	–	20	2	39	–
C[C@@H]1CN(C(=O)c2cc(Cl)ccc2-n2nccn2)[C@H](Cc2cc(-n3nccn3)ccc2F)CO1 [Example 186, (5-Chloro-2-[1,2,3]triazol-2-yl-phenyl)-[(2R,5R)-5-(2-fluoro-5-[1,2,3]triazol-2-yl-benzyl)-2-methyl-morpholin-4-yl]-methanone]	–	–	–	19	11	181	–
C[C@@H]1CN(C(=O)c2ccc(Cl)cc2-n2nccn2)[C@H](Cc2cc(-n3nccn3)ccc2F)CO1 [Example 187, (4-Chloro-2-[1,2,3]triazol-2-yl-phenyl)-[(2R,5R)-5-(2-fluoro-5-[1,2,3]triazol-2-yl-benzyl)-2-methyl-morpholin-4-yl]-methanone]	–	–	–	14	6	58	–
Cc1ccc(-n2nccn2)c(C(=O)N2CCOC[C@H]2Cc2cc(-n3cccn3)ccc2C)c1 [Example 188, [(R)-3-(2-Methyl-5-pyrazol-1-yl-benzyl)-morpholin-4-yl]-(5-methyl-2-[1,2,3]triazol-2-yl-phenyl)-methanone]	–	–	–	14	21	2130	–
Cc1ccc(C(=O)N2CCOC[C@H]2Cc2cc(-n3cccn3)ccc2C)c(-n2nccn2)c1 [Example 189, [(R)-3-(2-Methyl-5-pyrazol-1-yl-benzyl)-morpholin-4-yl]-(4-methyl-2-[1,2,3]triazol-2-yl-phenyl)-methanone]	–	–	–	17	12	1090	–
Cc1ccc(-n2cccn2)cc1C[C@@H]1COCCN1C(=O)c1cccc(C)c1-n1nccn1 [Example 190, [(R)-3-(2-Methyl-5-pyrazol-1-yl-benzyl)-morpholin-4-yl]-(3-methyl-2-[1,2,3]triazol-2-yl-phenyl)-methanone]	–	–	–	26	25	3770	–
Cc1ccc(-n2nccn2)cc1C[C@@H]1COCCN1C(=O)c1ccc(Cl)cc1-n1nccn1 [Example 191, (4-Chloro-2-[1,2,3]triazol-2-yl-phenyl)-[(R)-3-(2-methyl-5-[1,2,3]triazol-2-yl-benzyl)-morpholin-4-yl]-methanone]	–	–	–	14	12	1040	–
Cc1ccc(C[C@@H]2COCCN2C(=O)c2ccccc2-n2nccn2)cc1-c1ncccn1 [Example 192, [(R)-3-(4-Methyl-3-pyrimidin-2-yl-benzyl)-morpholin-4-yl]-(2-[1,2,3]triazol-2-yl-phenyl)-methanone]	–	–	–	> 50	16	2610	–
Cc1ccc(C[C@@H]2COCCN2C(=O)c2ccccc2-n2nccn2)cc1-c1nccs1 [Example 193, [(R)-3-(4-Methyl-3-thiazol-2-yl-benzyl)-morpholin-4-yl]-(2-[1,2,3]triazol-2-yl-phenyl)-methanone]	–	–	–	0.6	1	238	–
Cc1ccc(-n2nccn2)c(C(=O)N2CCC[C@H]2Cc2cccc(-n3nccn3)c2)c1 [Ref. 2]	–	–	–	3.3	0.5	8	–
O=C(c1ccccc1-n1nccn1)N1CCCC[C@H]1Cc1cccc(-n2nccn2)c1 [Ref. 3]	–	–	–	6.1	1	12	–
Cc1ccc(-n2nccn2)c(C(=O)N2CCCC[C@H]2Cc2cccc(-n3nccn3)c2)c1 [Ref. 4]	–	–	–	7.7	0.3	2	–
